Publication PMC4170518 (Biochemistry, 2013)

Key:
[1] = target: T1, class II fructose 1,6-bisphosphate aldolase (MtFBA) (Mycobacterium tuberculosis, UniProt P9WQA3); assay: biochemical
[2] = target: T1, class II fructose 1,6-bisphosphate aldolase (MtFBA); assay: biochemical; format: binding

T1 sequence (P9WQA3 whole entry): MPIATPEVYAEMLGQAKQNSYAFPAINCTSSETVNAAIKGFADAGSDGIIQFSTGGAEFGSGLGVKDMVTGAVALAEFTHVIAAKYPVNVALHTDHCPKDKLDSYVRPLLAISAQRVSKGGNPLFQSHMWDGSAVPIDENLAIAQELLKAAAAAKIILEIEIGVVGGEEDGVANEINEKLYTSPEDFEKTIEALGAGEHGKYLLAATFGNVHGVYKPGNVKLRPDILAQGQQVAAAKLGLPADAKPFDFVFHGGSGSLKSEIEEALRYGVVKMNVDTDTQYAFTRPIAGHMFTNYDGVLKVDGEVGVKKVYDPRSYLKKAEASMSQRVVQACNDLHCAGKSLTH

Structure (SMILES)	Ki [1] [µM]	Kd [2] [µM]
O=C(CO)COP(=O)(O)O [DHAP, dihydroxyacetone phosphate]	238 ± 20	
O=C(COP(=O)(O)O)NO [PGH, phosphoglycolohydroxamate]		0.0211 ± 0.0002
